Measured values taken from PubChem BioAssay (NCI).
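Abbreviation: GI50, concentration required for 50% inhibition of growth. The concentration for full growth arrest is given as TGI.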

Legend:
Assay in all cases: NCI tumour cell line growth inhibition, 384-well format
[1] = test system: CCRF-CEM leukemia
[2] = test system: BT-549 breast
[3] = test system: NCI-H23 lung
[4] = test system: NCI-H322M lung
[5] = test system: SF-295 CNS
[6] = test system: SF-539 CNS
[7] = test system: NCI-H226 lung
[8] = test system: HOP-62 NSCLC
[9] = test system: KM12 colon
[10] = test system: RPMI-8226 leukemia
[11] = test system: ACHN renal
[12] = test system: SNB-75 CNS
[13] = test system: UACC-62 melanoma
[14] = test system: NCI-H460 NSCLC
[15] = test system: SR leukemia
[16] = test system: IGROV1 ovarian
[17] = test system: OVCAR-8 ovarian
[18] = test system: UACC-257 melanoma
[19] = test system: A549 NSCLC
[20] = test system: MDA-MB-231 breast
[21] = test system: SN12C renal
[22] = test system: DU-145 prostate
[23] = test system: SF-268 CNS
[24] = test system: HCT-15 colon
[25] = test system: 786-0 renal
[26] = test system: MALME-3M melanoma
[27] = test system: HT29 colon
[28] = test system: K-562 leukemia
[29] = test system: HL-60(TB) leukemia
[30] = test system: COLO 205 colon
[31] = test system: SNB-19 CNS
[32] = test system: TK-10 renal
[33] = test system: MCF7 breast
[34] = test system: HCT-116 colon
[35] = test system: SK-MEL-5 melanoma
[36] = test system: NCI/ADR-RES ovarian
[37] = test system: MDA-MB-468 breast
[38] = test system: SK-MEL-28 melanoma
[39] = test system: UO-31 renal
[40] = test system: A498 renal
[41] = test system: PC-3 prostate
[42] = test system: RXF 393 renal
[43] = test system: HOP-92 NSCLC
[44] = test system: SW-620 colon
[45] = test system: OVCAR-4 ovarian
[46] = test system: HCC-2998 colon
[47] = test system: OVCAR-5 ovarian

C[C@@H]1Cc2c(ccc3[nH]ncc23)[C@@H](c2ccc(NC3CN(CCCF)C3)cn2)N1CC(F)(F)F
GI50 [1]: 5.58 µM
TGI [1]: 17.4 µM
GI50 [2]: 13.1 µM
TGI [2]: 25.9 µM
GI50 [3]: 11.7 µM
TGI [3]: 24.3 µM
GI50 [4]: 16.4 µM
TGI [4]: 30.9 µM
GI50 [5]: 17.7 µM
TGI [5]: 31.6 µM
GI50 [6]: 16.7 µM
TGI [6]: 30.4 µM
GI50 [7]: 17.4 µM
TGI [7]: 53.3 µM
GI50 [8]: 17.6 µM
TGI [8]: 31.4 µM
GI50 [9]: 15.8 µM
TGI [9]: 29.8 µM
GI50 [10]: 6.32 µM
TGI [10]: 19.3 µM
GI50 [11]: 17.5 µM
TGI [11]: 31.5 µM
GI50 [12]: 17.6 µM
TGI [12]: 31.4 µM
GI50 [13]: 13.8 µM
TGI [13]: 26.8 µM
GI50 [14]: 15.6 µM
TGI [14]: 29.3 µM
GI50 [15]: 2.18 µM
TGI [15]: 4.92 µM
GI50 [16]: 14.8 µM
TGI [16]: 30.1 µM
GI50 [17]: 15.4 µM
TGI [17]: 28.9 µM
GI50 [18]: 13.9 µM
TGI [18]: 26.9 µM
GI50 [19]: 27.5 µM
TGI [19]: 77.6 µM
GI50 [20]: 14.2 µM
TGI [20]: 28.7 µM
GI50 [21]: 15.9 µM
TGI [21]: 30.5 µM
GI50 [22]: 18.5 µM
TGI [22]: 37.7 µM
GI50 [23]: 16.5 µM
TGI [23]: 30.3 µM
GI50 [24]: 16.4 µM
TGI [24]: 30.3 µM
GI50 [25]: 15.2 µM
TGI [25]: 28.5 µM
GI50 [26]: 13.8 µM
TGI [26]: 26.7 µM
GI50 [27]: 14.6 µM
TGI [27]: 27.9 µM
GI50 [28]: 14.2 µM
TGI [28]: 27.5 µM
GI50 [29]: 13.5 µM
TGI [29]: 26.4 µM
GI50 [30]: 16.1 µM
TGI [30]: 29.7 µM
GI50 [31]: 23.1 µM
TGI [31]: 49.8 µM
GI50 [32]: 16.6 µM
TGI [32]: 30.5 µM
GI50 [33]: < 0.01 µM
TGI [33]: 13.5 µM
GI50 [34]: 13.3 µM
TGI [34]: 26.2 µM
GI50 [35]: 14.8 µM
TGI [35]: 28 µM
GI50 [36]: 23.5 µM
TGI [36]: 62.6 µM
GI50 [37]: 7.75 µM
TGI [37]: 20.1 µM
GI50 [38]: 16.1 µM
TGI [38]: 29.7 µM
GI50 [39]: 17.6 µM
TGI [39]: 31.5 µM
GI50 [40]: 12.5 µM
TGI [40]: 25 µM
GI50 [41]: 14.9 µM
TGI [41]: 28.6 µM
GI50 [42]: 4.54 µM
TGI [42]: 16.1 µM
GI50 [43]: 13 µM
TGI [43]: 25.7 µM
GI50 [44]: 16.6 µM
TGI [44]: 30.4 µM
GI50 [45]: 19.3 µM
TGI [45]: 35.7 µM
GI50 [46]: 13.8 µM
TGI [46]: 26.8 µM
GI50 [47]: 16 µM
TGI [47]: 30.7 µM
